# Patent publication US20250288704A1, “CXCR4-LIGANDS FOR DIAGNOSTIC AND THERAPEUTIC USE AND PRECURSORS THEREOF” (priority 2021, published 2025)
# Positions of bridges follow the written chain, without caps; N, C: chain ends. Non-standard residues stand in square brackets, D forms with d. Residues, ends and D or L forms follow the SMILES beside them. Groups on a side chain read outwards from the residue. Chains are numbered I, II in the order given. *: point of attachment. X2 = OC[C@H]1O[C@@H](O[C@H]2[C@H](O)[C@@H](O)[C@H](*)O[C@@H]2CO)[C@H](O)[C@@H](O)[C@H]1O; X3 = OCC1OC(OC2C(CO)OC(*)C(O)C2O)C(O)C(O)C1O; 2Nal = N[C@@H](Cc1ccc2ccccc2c1)C(=O)O; dCit = NC(=O)NCCC[C@@H](N)C(=O)O; dNMeOrn = CN[C@H](CCCN)C(=O)O; d(hCys) = N[C@H](CCS)C(=O)O; HYNIC = NNc1ccc(C(=O)*)cn1; Mercaptoacetyl = O=C(CS)*; X4 = OCC1OC(*)C(O)C(O)C1O; 4Abz = Nc1ccc(C(=O)O)cc1; dDap = NC[C@@H](N)C(=O)O
# Legend:
# [1] = system: CXCR4-expressing Chem_1 cells; experiment: Determination of internalization, dual tracer with 125I-Fc-131; format: cell-based; details: for Cell-bound [%] / Internalized [%]: of total cellular activity
# Procedure, shortened: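 Chem_1 cells grown in DMEM-F12 with 10% FBS at 37 °C; wells (n=3 per time point) received medium or AMD3100 (1 mM stock) to block receptors. Unbound, surface-bound and NaOH-lysed internalized fractions were γ-counted; data corrected for non-specific internalization and referred to standard ligand specific internalization.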
# [2] = Octanol/PBS partition coefficient (logD7.4); format: physicochemical; details: n-octanol/PBS pH 7.4, radiolabeled compound
# Experimental: The tubes were vortexed at maximum speed for 3 min to ensure equilibrium before centrifugation at 15.000×g for 5 min on a Biofuge 15 from Heraeus Holding GmbH (Osterode, Germany). An aliquot of 100 μL of each fraction was measured in the γ-counter and the log D7.4 calculated as follows: […]
# CXCR4 [3] = biological target: T1, CXCR4 (Homo sapiens, UniProt P61073); experiment: Determination of inverse IC50 (invIC50): radiolabeled peptide displaced by Fc-131 on Jurkat cells
# T1 sequence (P61073 whole entry): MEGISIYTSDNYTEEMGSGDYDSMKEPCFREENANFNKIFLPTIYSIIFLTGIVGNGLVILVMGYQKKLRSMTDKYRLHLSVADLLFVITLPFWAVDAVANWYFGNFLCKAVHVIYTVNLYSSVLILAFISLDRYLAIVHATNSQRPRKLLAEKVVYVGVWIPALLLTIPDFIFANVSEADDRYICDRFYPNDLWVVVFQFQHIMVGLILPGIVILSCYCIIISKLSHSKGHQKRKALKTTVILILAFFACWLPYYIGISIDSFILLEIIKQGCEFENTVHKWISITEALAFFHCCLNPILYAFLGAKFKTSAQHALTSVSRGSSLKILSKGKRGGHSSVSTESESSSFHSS
# Experimental: For in vitro experiments, cells were counted in a hemocytometer using trypan blue as contrast agent. The cell suspension was centrifuged, and the pellet resuspended in HBSS (+1 wt % BSA) to a concentration of 2 mio cells/mL. 8×3 polystyrene tubes were loaded with 25 μL of the standard ligand ^125I-Fc-131 (see 4.1, 1.00 nM in HBSS) and 25 μL of the ligand to investigate in the respective concentration (10^−4-10^−10 M, n=3 for each concentration). 200 μL of cell suspension (400.000 cells per well) were added to obtain a final peptide concentration range of 10^−5-10^−11 M. The tubes were cooled for 2 h at 8° C. to prevent internalization. The experiment was stopped by removal of the supernatant. 200 μL HBSS were added onto the cells, the suspension centrifuged, and the supernatant pooled with the respective first fractions. This step was repeated once more before the tubes containing the supernatants and the ones containing the cell pellets were subjected to activity measurement in the γ-counter.
# For the determination of inverse IC50 (invIC50) values the protocol for the determination of regular IC50 values was resumed with minor changes. The peptide under investigation was radioactively labeled and a stock solution was prepared in HBSS (2.00 nM). A concentration gradient of the standard ligand Fc-131 was prepared in HBSS (10^−4-10^−10 M). A cell tube was then containing 25 μL of the radioactive peptide solution, 25 μL of the respective Fc-131 solution and 200 μL cell suspension (400.000 cells). The experiment was conducted as described above.
# CXCR4 [4] = biological target: T1, CXCR4; experiment: Determination of IC50: competition with 125I-Fc-131 on CXCR4-positive Jurkat cells; format: binding; parameters: CXCR4-positive Jurkat T lymphocyte cells were grown in Gibco's RPMI 1640 GlutaMAX medium; endogenous in cells; host or cells: Jurkat T lymphocyte cells (whole cells in suspension, 400.000 per tube);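 note: test compound at 10^−5 to 10^−11 M competed for 2 h at 8 °C with the radioligand on 400,000 cells per well, bound versus free activity measured by γ-counting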
# Experimental: For in vitro experiments, cells were counted in a hemocytometer using trypan blue as contrast agent. The cell suspension was centrifuged, and the pellet resuspended in HBSS (+1 wt % BSA) to a concentration of 2 mio cells/mL. […] 200 μL of cell suspension (400.000 cells per well) were added to obtain a final peptide concentration range of 10^−5-10^−11 M. The tubes were cooled for 2 h at 8° C. to prevent internalization. The experiment was stopped by removal of the supernatant. 200 μL HBSS were added onto the cells, the suspension centrifuged, and the supernatant pooled with the respective first fractions. This step was repeated once more before the tubes containing the supernatants and the ones containing the cell pellets were subjected to activity measurement in the γ-counter.
# [5] = Biodistribution in Jurkat tumor-bearing CB-17 SCID mice; format: in vivo; details: female, CB-17 SCID, mouse, in vivo, iv, total radioactivity
# Procedure, shortened: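 CB17-SCID mice bore subcutaneous Jurkat xenografts (2-3×10^7 cells in Matrigel, shoulder), used at 5-8 mm tumor diameter. About 0.5-20 MBq (0.02-0.20 nmol) of 125I-, 177Lu-, 99mTc-, 18F- or 68Ga-labeled ligand given by tail vein; organs weighed and γ-counted after set times.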
Structure (SMILES),Internalized in relation to 125I-Fc-131 [%] ([1]; 30 min),Cell-bound [%] ([1]; 30 min),Internalized [%] ([1]; 30 min),Internalization [% Fc-131] ([1]; 90 min),Internalized in relation to 125I-Fc-131 [%] ([1]; 90 min),Cell-bound [%] ([1]; 90 min),logD7.4 [2],IC50 (CXCR4 [3]) [nM],tissue uptake at 1 h ([5]; % iD/g Blood) [%ID/g],tissue uptake at 1 h ([5]; % iD/g Bone) [%ID/g],tissue uptake at 1 h ([5]; % iD/g Heart) [%ID/g],tissue uptake at 1 h ([5]; % iD/g Intestine) [%ID/g],tissue uptake at 1 h ([5]; % iD/g Kidney) [%ID/g],tissue uptake at 1 h ([5]; % iD/g Liver) [%ID/g],tissue uptake at 1 h ([5]; % iD/g Lung) [%ID/g],tissue uptake at 1 h ([5]; % iD/g Muscle) [%ID/g],tissue uptake at 1 h ([5]; % iD/g Pancreas) [%ID/g],tissue uptake at 1 h ([5]; % iD/g Spleen) [%ID/g],tissue uptake at 1 h ([5]; % iD/g Stomach) [%ID/g],tissue uptake at 1 h ([5]; % iD/g Tumor) [%ID/g],also measured
C[C@@H](NC(=O)[C@@H](CCCNC(=N)N)NC(=O)[C@@H](CN)NC(=O)[C@@H](CO)NC(=O)[C@@H](CO)NC(=O)[C@@H](CO)NC(=O)CS)C(=O)Nc1ccc(C(=O)NCCC[C@@H]2C(=O)N[C@@H](CCCNC(=N)N)C(=O)N[C@@H](Cc3ccc4ccccc4c3)C(=O)NCC(=O)N[C@H](Cc3ccc(O)cc3)C(=O)N2C)cc1 [Tc-CXCR4-6] (I: Mercaptoacetyl-[dS][dS][dS][dDap][dR][dA][4Abz] / II: cyclo([dY][dNMeOrn]R[2Nal]G); amide I:C-II:2),470 ± 17.4,6.56 ± 0.31,17.4 ± 0.40,525 (90 min) % Fc-131,526 ± 29.0,6.90 ± 0.29,−1.54 ± 0.02 (6),3.67 ± 0.77,–,–,–,–,–,–,–,–,–,–,–,–,Internalized [%] ([1]; 90 min): 27.1 ± 0.50%; IC50 (CXCR4 [4]): 4.97 ± 1.34 nM
C[C@@H](NC(=O)[C@@H](CCCNC(=N)N)NC(=O)[C@@H](CN)NC(=O)[C@@H](CCSC1OC(CO)C(O)C(O)C1O)NC(=O)[C@@H](CCSC1OC(CO)C(O)C(O)C1O)NC(=O)[C@@H](CCSC1OC(CO)C(O)C(O)C1O)NC(=O)CS)C(=O)Nc1ccc(C(=O)NCCC[C@@H]2C(=O)N[C@@H](CCCNC(=N)N)C(=O)N[C@@H](Cc3ccc4ccccc4c3)C(=O)NCC(=O)N[C@H](Cc3ccc(O)cc3)C(=O)N2C)cc1 (stereo partly shown) [Tc-CXCR4-9] (I: Mercaptoacetyl-[d(hCys)](X4)[d(hCys)](X4)[d(hCys)](X4)[dDap][dR][dA][4Abz] / II: cyclo([2Nal]G[dY][dNMeOrn]R); amide I:C-II:4),86.4 ± 9.62,3.69 ± 0.56,7.00 ± 0.74,103 (90 min) % Fc-131,103 ± 6.56,3.69 ± 0.49,−2.56 ± 0.03 (6),3.5 ± 0.65,1.42,0.47,0.87,1.5,14.8,3.97,2.4,0.24,0.5,1.24,3.51,5.92,Internalized [%] ([1]; 90 min): 12.5 ± 0.67%
C[C@@H](NC(=O)[C@@H](CCCNC(=N)N)NC(=O)[C@@H](CN)NC(=O)[C@@H](CO)NC(=O)[C@@H](CCS[C@@H]1O[C@H](CO)[C@@H](O[C@@H]2O[C@H](CO)[C@H](O)[C@H](O)[C@H]2O)[C@H](O)[C@H]1O)NC(=O)[C@@H](CO)NC(=O)CS)C(=O)Nc1ccc(C(=O)NCCC[C@@H]2C(=O)N[C@@H](CCCNC(=N)N)C(=O)N[C@@H](Cc3ccc4ccccc4c3)C(=O)NCC(=O)N[C@H](Cc3ccc(O)cc3)C(=O)N2C)cc1 [Tc-CXCR4-11] (I: Mercaptoacetyl-[dS][d(hCys)](X2)[dS][dDap][dR][dA][4Abz] / II: cyclo([2Nal]G[dY][dNMeOrn]R); amide I:C-II:4),178 ± 26.2,3.74 ± 0.33,6.98 ± 0.78,–,–,–,−2.94 ± 0.02 (8),2.05 ± 0.95,1.36,0.71,0.95,0.72,29,5.94,2.85,0.28,0.48,2.31,1.16,6.71,Internalized in relation to 125I-Fc-131 [%] ([1]; 15 min): 71.9 ± 11.4%; Cell-bound [%] ([1]; 15 min): 1.79 ± 0.36%; Internalized [%] ([1]; 15 min): 3.16 ± 0.46%; Internalized in relation to 125I-Fc-131 [%] ([1]; 60 min): 145 ± 19.8%; Cell-bound [%] ([1]; 60 min): 7.02 ± 0.06%; Internalized [%] ([1]; 60 min): 7.10 ± 0.84%; Internalization [% Fc-131] ([1]; 120 min): 221 (120 min) % Fc-131; Internalized in relation to 125I-Fc-131 [%] ([1]; 120 min): 221 ± 23.4%; Cell-bound [%] ([1]; 120 min): 4.25 ± 0.67%; Internalized [%] ([1]; 120 min): 10.8 ± 1.13%
C[C@@H](NC(=O)[C@@H](CCCNC(=N)N)NC(=O)[C@@H](CN)NC(=O)[C@@H](CCCNC(N)=O)NC(=O)[C@@H](CCSC1OC(CO)C(OC2OC(CO)C(O)C(O)C2O)C(O)C1O)NC(=O)[C@@H](CCCNC(N)=O)NC(=O)CS)C(=O)Nc1ccc(C(=O)NCCC[C@@H]2C(=O)N[C@@H](CCCNC(=N)N)C(=O)N[C@@H](Cc3ccc4ccccc4c3)C(=O)NCC(=O)N[C@H](Cc3ccc(O)cc3)C(=O)N2C)cc1 (stereo partly shown) [Tc-CXCR4-12] (I: Mercaptoacetyl-[dCit][d(hCys)](X3)[dCit][dDap][dR][dA][4Abz] / II: cyclo([2Nal]G[dY][dNMeOrn]R); amide I:C-II:4),284 ± 92.3,8.56 ± 0.66,9.64 ± 1.31,–,–,–,−2.92 ± 0.06 (8),4.82 ± 1.36,1.74,0.95,1.14,1.25,35,11,3.96,0.34,0.8,4.72,2.03,7.39,Internalized in relation to 125I-Fc-131 [%] ([1]; 15 min): 192 ± 38.1%; Cell-bound [%] ([1]; 15 min): 3.77 ± 0.83%; Internalized [%] ([1]; 15 min): 3.79 ± 0.69%; Internalized in relation to 125I-Fc-131 [%] ([1]; 60 min): 395 ± 72.2%; Cell-bound [%] ([1]; 60 min): 14.1 ± 0.71%; Internalized [%] ([1]; 60 min): 11.6 ± 2.01%; Internalization [% Fc-131] ([1]; 120 min): 473 (120 min) % Fc-131; Internalized in relation to 125I-Fc-131 [%] ([1]; 120 min): 473 ± 41.9%; Cell-bound [%] ([1]; 120 min): 7.42 ± 2.12%; Internalized [%] ([1]; 120 min): 18.1 ± 0.85%
C[C@@H](NC(=O)[C@@H](CCCNC(=N)N)NC(=O)[C@@H](CN)NC(=O)c1ccc(NN)nc1)C(=O)Nc1ccc(C(=O)NCCC[C@@H]2C(=O)N[C@@H](CCCNC(=N)N)C(=O)N[C@@H](Cc3ccc4ccccc4c3)C(=O)NCC(=O)N[C@H](Cc3ccc(O)cc3)C(=O)N2C)cc1 [Tc-CXCR4-13] (cyclo([dY][dNMeOrn]([4Abz-dA-dR-dDap-HYNIC])R[2Nal]G)),434 ± 18.8,7.56 ± 0.38,18.0 ± 0.27,503 (90 min) % Fc-131,503 ± 16.2,7.65 ± 0.47,−2.74 ± 0.03 (5),4.16 ± 1.5,1.56,0.81,0.78,0.57,29.5,2.62,1.94,1.52,0.36,2.43,1.98,8.02,Internalized [%] ([1]; 90 min): 25.5 ± 0.57%
